US9682925B2, “Cyclopropaneamine compound” (TAKEDA PHARMACEUTICAL COMPANY LIMITED, priority 2011, dated 2017)
Structures can show the parent of a compound that is named as a salt.

How the values were obtained:
Format in all cases: biochemical
human LSD1(171-852) = molecular target: T1, human LSD1(171-852) (Homo sapiens, UniProt O60341); test: Measurement of LSD1 inhibitory activity (time-resolved fluorescence, biotin-histone H3 mono methylated K4 peptide); details: read-out: LSD1 IC50 value
T1 construct: to give hLSD1(171-852) purified product; made in house; host or cells: Escherichia coli C43(DE3) pLysS

MAO-B = molecular target: T2, MAO-B (Homo sapiens, UniProt P27338); test: Measurement of MAO-B inhibitory activity (MAO-Glo Assay)
T2 construct: purchased Sigma-Aldrich Co. LLC
T2 sequence (P27338 1-520): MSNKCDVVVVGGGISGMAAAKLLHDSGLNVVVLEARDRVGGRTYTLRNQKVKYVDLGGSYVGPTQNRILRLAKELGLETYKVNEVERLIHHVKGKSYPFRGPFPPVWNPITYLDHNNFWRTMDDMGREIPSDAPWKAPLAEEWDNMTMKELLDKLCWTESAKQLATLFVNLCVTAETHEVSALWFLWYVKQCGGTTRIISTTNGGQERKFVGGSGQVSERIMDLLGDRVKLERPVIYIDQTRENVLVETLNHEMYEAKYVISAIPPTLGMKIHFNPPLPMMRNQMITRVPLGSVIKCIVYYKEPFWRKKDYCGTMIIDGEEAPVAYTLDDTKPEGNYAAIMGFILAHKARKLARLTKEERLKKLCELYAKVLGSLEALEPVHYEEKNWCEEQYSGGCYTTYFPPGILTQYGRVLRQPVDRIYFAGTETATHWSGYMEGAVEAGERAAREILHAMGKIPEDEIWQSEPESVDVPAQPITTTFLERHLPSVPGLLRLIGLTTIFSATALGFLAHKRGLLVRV
Procedure, shortened: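 Percent inhibition was calculated from luciferin-based luminescence, corrected with a blank lacking enzyme and a control lacking compound. The reaction ran 60 min at room temperature after adding MAO substrate (16 µM as added). This followed a 10 min compound–enzyme preincubation in HEPES pH 7.5 buffer.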

MAO-A = molecular target: T3, MAO-A (Homo sapiens, UniProt P21397); test: Measurement of MAO-A inhibitory activity (MAO-Glo Assay)
T3 construct: purchased Sigma-Aldrich Co. LLC
T3 sequence (P21397 1-527): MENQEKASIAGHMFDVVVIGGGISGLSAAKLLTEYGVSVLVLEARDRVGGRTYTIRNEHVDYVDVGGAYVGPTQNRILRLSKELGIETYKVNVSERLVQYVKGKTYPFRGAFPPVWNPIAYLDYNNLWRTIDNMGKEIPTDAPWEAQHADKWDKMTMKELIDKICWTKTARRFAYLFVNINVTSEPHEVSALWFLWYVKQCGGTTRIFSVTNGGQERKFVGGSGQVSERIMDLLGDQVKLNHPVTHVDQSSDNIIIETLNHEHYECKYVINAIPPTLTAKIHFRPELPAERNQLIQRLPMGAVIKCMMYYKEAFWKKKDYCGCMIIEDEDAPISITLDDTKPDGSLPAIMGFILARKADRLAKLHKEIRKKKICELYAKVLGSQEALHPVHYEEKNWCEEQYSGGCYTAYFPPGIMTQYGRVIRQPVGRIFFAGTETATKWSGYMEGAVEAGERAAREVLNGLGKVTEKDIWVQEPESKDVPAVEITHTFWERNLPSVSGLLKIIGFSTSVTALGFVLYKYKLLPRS
Procedure, shortened: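 MAO-A (400 ng) was pre-incubated with compound 10 min at room temperature in 100 mM HEPES pH 7.5, 5% glycerol, then MAO substrate (160 μM stock) added for 60 min. Luciferin detection reagent, 20 min, luminescence; % inhibition against no-compound control minus no-enzyme blank.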

IC50 (human LSD1(171-852)) [µM]	IC50 (MAO-B) [µM]	IC50 (MAO-A) [µM]	SMILES
< 0.1	> 10	> 10	O=C(Nc1ccc([C@@H]2C[C@H]2NCC2CC2)cc1)c1ccc(OC(F)(F)F)cc1 (relative stereo) [Example 108, N-(4-{trans-2-[(cyclopropylmethyl)amino]cyclopropyl}phenyl)-4-(trifluoromethoxy)benzamide hydrochloride]
< 0.1	> 10	> 10	O=C(Nc1ccc([C@@H]2C[C@H]2NCC2CC2)cc1)c1cccc(OC(F)(F)F)c1 (relative stereo) [Example 109, N-(4-{trans-2-[(cyclopropylmethyl)amino]cyclopropyl}phenyl)-3-(trifluoromethoxy)benzamide hydrochloride]
< 0.1	> 10	> 10	CN(C)c1ccc(CN[C@@H]2C[C@H]2c2ccc(NC(=O)c3cccc(C(F)(F)F)c3)cc2)cc1 (relative stereo) [Example 110, N-[4-(trans-2-{[4-(dimethylamino)benzyl]amino)cyclopropyl}phenyl]-3-(trifluoromethyl)benzamide dihydrochloride]
< 0.1	> 10	> 10	O=C(Nc1ccc([C@@H]2C[C@H]2NC2CCN(C3CC3)CC2)cc1)c1cccc(C(F)(F)F)c1 (relative stereo) [Example 111, N-(4-{trans-2-[(1-cyclopropylpiperidin-4-yl)amino]cyclopropyl}phenyl)-3-(trifluoromethyl)benzamide dihydrochloride]
< 0.1	> 10	> 10	CC(C)N1CCC(N[C@@H]2C[C@H]2c2ccc(NC(=O)c3cccc(C(F)(F)F)c3)cc2)CC1 (relative stereo) [Example 112, N-[4-(trans-2-{[1-(1-methylethyl)piperidin-4-yl]amino}cyclopropyl)phenyl]-3-(trifluoromethyl)benzamide dihydrochloride]
< 0.1	> 10	5.7	O=C(Nc1ccc([C@@H]2C[C@H]2NCC2CC2)cc1)c1ccc(-c2cc[nH]n2)cc1 (relative stereo) [Example 113, N-(4-{trans-2-[(cyclopropylmethyl)amino]cyclopropyl}phenyl)-4-(1H-pyrazol-3-yl)benzamide hydrochloride]
< 0.1	> 10	> 10	O=C(Nc1ccc([C@@H]2C[C@H]2NCC2CC2)cc1)c1ccc2[nH]ccc2c1 (relative stereo) [Example 114, N-(4-{trans-2-[(cyclopropylmethyl)amino]cyclopropyl}phenyl)-1H-indole-5-carboxamide trifluoroacetate]

The next lines start with the molecule.

SMILES	IC50 (human LSD1(171-852)) [µM]	IC50 (MAO-B) [µM]	IC50 (MAO-A) [µM]
O=C(Nc1ccc([C@@H]2C[C@H]2NCC2CC2)cc1)c1ccc(-c2cnco2)cc1 (relative stereo) [Example 95, N-(4-{trans-2-[(cyclopropylmethyl)-amino]cyclopropyl}-phenyl)-4-(1,3-oxazol-5-yl)benzamide]	< 0.1	> 10	> 10
O=C(Nc1ccc([C@@H]2C[C@H]2NCC2CC2)cc1)c1ccc(-c2ccncc2)cc1 (relative stereo) [Example 96, N-(4-{trans-2-[(cyclopropylmethyl)-amino]cyclopropyl}-phenyl)-4-(pyridin-4-yl)benzamide]	< 0.1	> 10	> 10
O=C(Nc1ccc([C@@H]2C[C@H]2NCC2CC2)cc1)c1ccc2nc(-c3ccsc3)[nH]c2c1 (relative stereo) [Example 97, N-(4-{trans-2-[(cyclopropylmethyl)-amino]cyclopropyl}-phenyl)-2-(3-thienyl)-1H-benzimidazole-6-carboxamide]	< 0.1	> 10	> 10
O=C(Nc1ccc([C@@H]2C[C@H]2NCC2CC2)cc1)c1ccc2nc(-c3ccco3)[nH]c2c1 (relative stereo) [Example 98, N-(4-{trans-2-[(cyclopropylmethyl)-amino]cyclopropyl}-phenyl)-2-(2-furyl)-1H-benzimidazole-6-carboxamide]	< 0.1	> 10	> 10
O=C(Nc1ccc([C@@H]2C[C@H]2NCC2CC2)cc1)c1ccc2[nH]ncc2c1 (relative stereo) [Example 99, N-(4-{trans-2-[(cyclopropylmethyl)-amino]cyclopropyl}-phenyl)-1H-indazole-5-carboxamide]	< 0.1	> 10	> 10
O=C(Nc1ccc([C@@H]2C[C@H]2NCC2CC2)cc1)c1cccc(-n2cnnn2)c1 (relative stereo) [Example 100, N-(4-{trans-2-[(cyclopropylmethyl)-amino]cyclopropyl}-phenyl)-3-(1H-tetrazol-1-yl)benzamide]	< 0.1	> 10	> 10
Cc1nc(-c2cccc(C(=O)Nc3ccc([C@@H]4C[C@H]4NCC4CC4)cc3)c2)cs1 (relative stereo) [Example 101, N-(4-{trans-2-[(cyclopropylmethyl)-amino]cyclopropyl}-phenyl)-3-(2-methyl-1,3-thiazol-4-yl)benzamide]	< 0.1	> 10	> 10
O=C(Nc1ccc([C@@H]2C[C@H]2NCC2CC2)cc1)c1ccc(-c2nnn[nH]2)cc1 (relative stereo) [Example 102, N-(4-{trans-2-[(cyclopropylmethyl)-amino]cyclopropyl}-phenyl)-4-(1H-tetrazol-5-yl)benzamide]	0.2	> 10	> 10
O=C(Nc1ccc([C@@H]2C[C@H]2NCC2CC2)cc1)c1coc(-c2ccccc2)n1 (relative stereo) [Example 103, N-(4-{trans-2-[(cyclopropylmethyl)-amino]cyclopropyl}-phenyl)-2-phenyl-1,3-oxazole-4-carboxamide]	< 0.1	> 10	> 10
O=C(Nc1ccc([C@@H]2C[C@H]2NCC2CC2)cc1)c1cnc(-c2ccccc2)o1 (relative stereo) [Example 104, N-(4-{trans-2-[(cyclopropylmethyl)-amino]cyclopropyl}-phenyl)-2-phenyl-1,3-oxazole-5-carboxamide]	< 0.1	> 10	> 10
Cc1ccc(C(=O)Nc2ccc([C@@H]3C[C@H]3NCC3CC3)cc2)cc1C (relative stereo) [Example 105, N-(4-{trans-2-[(cyclopropylmethyl)amino]cyclopropyl}phenyl)-3,4-dimethylbenzamide hydrochloride]	< 0.1	> 10	> 10
Cc1ccc(C)c(C(=O)Nc2ccc([C@@H]3C[C@H]3NCC3CC3)cc2)c1 (relative stereo) [Example 106, N-(4-{trans-2-[(cyclopropylmethyl)amino]cyclopropyl}phenyl)-2,5-dimethylbenzamide hydrochloride]	< 0.1	> 10	> 10
O=C(Nc1ccc([C@@H]2C[C@H]2NCc2ccc3nccn3c2)cc1)c1cccc(C(F)(F)F)c1 (relative stereo) [Example 107, N-(4-{trans-2-[(imidazo[1,2-a]pyridin-6-ylmethyl)amino]cyclopropyl}phenyl)-3-(trifluoromethyl)benzamide dihydrochloride]	< 0.1	> 10	4.3
